Bounds are passed on as bounds.

The text below walks through data of a melting point compilation (Tetko et al.; mined from patent text by program, amines drawn as free bases though some values may be those of a salt).

In general, melting point refers to the temperature, or range, at which the solid turns liquid. As to `O=C(O)C(Cc1ccccc1)Nc1cc(-c2ccc(OCc3ccccc3)nc2)ncn1` (stereo not drawn), the melting point was in the range of 130 to 133 °C. The same measure for `CCC(O)c1nc(C)nc2c1c(C)c(C)n2-c1c(C)cc(C)cc1C` (stereo not drawn): 143 to 144 °C; for `CC(C)=CCCC(C)=CC=C1SC(=S)N(CC(=O)O)C1=O`: 95 to 98 °C. The same measure for `CN1CCN(c2ccccc2C=C2CCN(c3ccccc3)C2=O)CC1`: 104 to 106 °C; for `COc1ccc(NC(=O)c2ccc(F)c(F)c2)cc1NC(=S)Nc1ccc(C(=O)O)cc1`: 200 to 203 °C; for `c1ccc(-c2ccc3[nH]c4c(c3c2)CCNCC4)cc1`: more than 250 °C. The same measure for `CC1(C)OC(c2ccc(S(C)(=O)=O)cc2)=C(c2cccc([N+](=O)[O-])c2)C1=O`: 158 to 159 °C; for `CC(C)(C)SC1CC(=O)N1CC(=O)CCc1ccccc1` (stereo not drawn): 65 °C. `CC[C@@]12C[C@H](N)[C@](O)(c3ccccc3)C[C@H]1CCc1cc(O)ccc12` displayed a melting point of 209 to 210 °C. The same measure for `CCc1nc2c(N)nc3cc(-c4cccnc4)ccc3c2n1CC1CCN(C(=O)OC(C)(C)C)CC1`: 229 to 231 °C; for `O=C(O)CCCOc1cccc(CNC(=O)c2nc3ccccc3c(=O)[nH]2)c1`: 259 to 260 °C; for `COc1ccccc1-c1cc2c(ccn2C)c2c1C(=O)NC2=O`: 243 to 245 °C.

In turn, `Cc1c(Cl)cc(C(C)(C)C)c(O)c1-c1nc2cc(C#N)ccc2[nH]1` yielded a melting point of 258 °C. The value for `COc1ccc(C=Cn2ncc3ccccc3c2=O)cc1` was 267 to 269 °C; that for `CC(=Cc1ccc(C(C)C)cc1)COc1cc(C)c(NC=O)c(C)c1C` was 153 to 155 °C; that for `CCCCCCCCCCCCOCC1CN(c2cc3c(cc2F)c(=O)c(C(=O)O)cn3CC)CCN1C` (stereo not drawn) was 166 to 168 °C. The value for `CN1CCN(C2Cc3cc(Cl)ccc3Sc3ccc(F)cc32)CC1` (stereo not drawn) was 118 to 120 °C; that for `CCOC(=O)NC1CCN(c2ncnc3cc(OC)c(OC)cc23)CC1` was 179 to 181 °C.

The compound `NS(=O)(=O)c1nc2ccc(OC(=O)Cc3ccc(Cl)cc3)cc2s1` returned a melting point of 206 to 208 °C.

On to `C=C(C)c1ccccc1S(N)(=O)=O`, for which the melting point lay within 76 to 85 °C. The same measure for `COc1ccc([N+](=O)[O-])cc1C=O`: 89 to 90 °C; for `OCCOCCn1c(NC2CCNCC2)nc2ccccc21`: 164 °C; for `O=C(O)c1cc(OCCCCCCc2cccc(O)c2O)ccc1O`: 159 to 161 °C. Turning to `Cc1cc(C(=O)N2Cc3ccc(C(=O)N4CCN(C)CC4)n3Cc3ccccc32)ccc1C1=CCCc2ccccc21`, the melting point turned out to be 108 °C. `OCC(COCCCCCCCCOc1ccc(-c2ccccc2)cc1)OCc1ccccc1` (stereo not drawn): the melting point was in the range of 48 to 50 °C. For `C=C(C)C(=O)Oc1ccc(C(=O)c2ccccc2)cc1`, the melting point was in the range of 69.5 to 70.5 °C.

The compound `Nc1cccc(-c2ccc(C3(O)C4CCC3CN(Cc3ccco3)C4)cc2)n1` (stereo not drawn) returned a melting point of 187 to 202 °C.

`c1ccc(C2CCNCc3ccccc3O2)cc1` (stereo not drawn) had a melting point of 73 to 74 °C. The value for `COc1cc(C(=O)CCN(C)C)cc(OC)c1OC` was 45 to 47 °C.

`O=C(O)Cn1cc(Cc2nc3c(F)c(F)cc(F)c3s2)c2ccc(-c3ccccc3)cc21` returned a melting point of 156 to 159 °C. The value for `Cc1cc(C(=O)c2cccs2)cc(C)c1OCC(=O)O` was 115 °C; that for `CCn1cc2c(n1)c(=O)[nH]c1ccccc12` was more than 250 °C; that for `O=C(O)C(=Cc1cc(C(=O)O)c(=O)n2ccccc12)C(=O)O` was more than 250 °C. `CC(C)(C)c1c(-c2ccc(S(C)(=O)=O)cc2)cnn(-c2ccc(F)c(F)c2)c1=O` showed a melting point of 158 to 161 °C. For `CCOC(=O)c1cccc(Cn2cnc3ccncc32)c1`, the melting point was in the range of 102 to 104 °C. With `CS(=O)(=O)NCCCC1COCc2nc3c(N)nc4c(c3n21)CCCC4` (stereo not drawn), the melting point fell in the range of 197 to 200 °C. `Cc1ccccc1NS(=O)(=O)c1ccc(NC2=C(Cl)C(=O)c3ccccc3C2=O)cc1` registered a melting point of 265 to 266 °C.

With `O=C(CCc1ccc(NC(=O)c2ccccc2)cc1)NO`, the melting point lay within 189 to 191 °C. The value for `CCOC(=O)c1c(C(F)(F)F)nc(C(F)F)c(C#N)c1CC` was 38 to 40 °C; that for `CCOC(=O)C1=C[C@H](O)[C@H](NC(C)=O)[C@@H](N=[N+]=[N-])C1` was 51 to 53 °C; that for `CC1(C)Oc2ccsc2C(NC(=O)c2ccc(C(F)(F)F)cc2)C1O` (stereo not drawn) was 162 to 163 °C. For `CS(=O)(=O)c1ccc(-c2cnn(CC(F)(F)F)c(=O)c2NC2CCc3ccccc32)cc1` (stereo not drawn), the melting point is 155 to 158 °C. The same measure for `Cc1c(-c2ccccc2)oc2c(C(=O)N(C)CCO)cccc2c1=O`: 128 to 130 °C; for `CC(=O)Nc1nc(CCc2ccc(N)cc2)c(-c2ccc(S(C)(=O)=O)cc2)s1`: 202 to 204 °C; for `COc1ccc2nc(NC(=O)c3nc4ccccc4[nH]3)sc2c1`: 246 °C. The value for `NC(=O)c1cc2c(cc1OCC1CCCCC1)CCCCC2N` (stereo not drawn) was 170 to 172 °C; that for `COC(=O)c1ccc(CCNCC(O)c2ccccc2Cl)cc1` (stereo not drawn) was 94 to 95 °C. In turn, `O=C(N[C@H](Cc1cccc(OC(F)(F)C(F)F)c1)[C@@H](O)c1csc(-c2ccccc2)n1)c1cccc2c1C=CCCC2` (racemic) returned a melting point of 137 to 138 °C. The value for `CC(C)C[C@@H](C(=O)N1CCN(C(c2ccc(F)cc2)c2ccc(F)cc2)CC1)N1CCOCC1` was 55 to 63 °C; that for `Nc1c(C(=O)c2ccccc2)oc2ccccc12` was 122 to 124 °C; that for `C#CCOc1cc(O)c2c(c1)OC(C)(C)CC2=O` was 122 to 124 °C.

`NS(=O)(=O)c1ccc(C2CCN(c3ccncc3)CC2)cc1` registered a melting point of 295 °C. The value for `CCCc1nc2ccnn2c(O)c1Cc1ccc(-c2ccccc2C(N)=O)cc1` was 264 °C. The value for `C=C1C(=O)c2ccccc2OC1c1cccc([N+](=O)[O-])c1` (stereo not drawn) was 131 to 132 °C. `OCCOc1ccc2nc(S)sc2c1` returned a melting point of 162 to 165 °C. The compound `CC(O)C(O)Cc1cc(C(N)=O)ccc1C(N)=O` (stereo not drawn) came in with a melting point of 130 °C.

`OC1Cc2ccccc2Sc2cc(Cl)c(F)cc21` (stereo not drawn): the melting point was in the range of 86 to 87 °C. For the compound `COc1c(Cl)ccc(-c2cc(N)c(Cl)c(C(=O)NOCc3cnc(Cl)s3)n2)c1F`, the melting point fell in the range of 164 to 167 °C. The value for `CCCCOC(=O)C(=C1SC=CS1)S(=O)(=O)C(C)C` was 67 to 69 °C; that for `CCOC(=O)c1cc2c3cc(Br)ccc3ncn2c1` was 183 to 185 °C; that for `CN(c1cccc2cc(-c3nc(CCC(=O)O)cs3)[nH]c12)S(=O)(=O)c1cccs1` was 200 to 201 °C. Compound `C=C(C)COc1ccc2c(=O)c(C)c(-c3ccccc3)oc2c1C(=O)C=Cc1cccc(OC)c1` registered a melting point of 131 to 134 °C.

In the case of `OC(=S)CCc1ccccc1`, the melting point was 60 °C.
